The source of these data is patent US9630963B2, “Quinolone derivatives as fibroblast growth factor inhibitors” (Principia Biopharma, Inc., priority 2013, dated 2017).

What is called IC50 is the midpoint of a concentration-inhibition curve.

Molecules are shown by their SMILES.

One experiment addresses human recombinant FGFR1 (Homo sapiens, UniProt P11362). Briefly: FGFR family enzymatic activity assay (Caliper-based kinase assay), FGFR1. Type of experiment: biochemical. Conditions: FGFR1 0.5 nM, ATP 100 μM, peptide substrate 1 μM, room temperature 3 h. From the text: A Caliper-based kinase assay (Caliper Life Sciences, Hopkinton, Mass.) was used to measure inhibition of FGFR family (FGFR1, FGFR2, FGFR3, FGFR4) kinase activity of a compound of Formula (I′) or (I). […] This value is presented as the IC50.

For a further experiment, the system named is SNU-16 cells. In words: Inhibition of FGFR2-dependent cell growth (Cell-titer Glo). It counts as cell-based. Conditions: Homo sapiens, SNU16 cells, 72 hrs incubation, cell viability by Cell-titer Glo. The protocol: The cell-based effects of FGFR inhibitors were determined by measuring inhibition of FGFR-dependent cell line growth. […] Percent inhibition of cell growth was calculated as a percentage of untreated cell viability. The percent inhibition was plotted as a function of log compound concentration. The IC50 was then calculated for each compound using Prism software from GraphPad.

Chain of human recombinant FGFR1 (P11362 22-822): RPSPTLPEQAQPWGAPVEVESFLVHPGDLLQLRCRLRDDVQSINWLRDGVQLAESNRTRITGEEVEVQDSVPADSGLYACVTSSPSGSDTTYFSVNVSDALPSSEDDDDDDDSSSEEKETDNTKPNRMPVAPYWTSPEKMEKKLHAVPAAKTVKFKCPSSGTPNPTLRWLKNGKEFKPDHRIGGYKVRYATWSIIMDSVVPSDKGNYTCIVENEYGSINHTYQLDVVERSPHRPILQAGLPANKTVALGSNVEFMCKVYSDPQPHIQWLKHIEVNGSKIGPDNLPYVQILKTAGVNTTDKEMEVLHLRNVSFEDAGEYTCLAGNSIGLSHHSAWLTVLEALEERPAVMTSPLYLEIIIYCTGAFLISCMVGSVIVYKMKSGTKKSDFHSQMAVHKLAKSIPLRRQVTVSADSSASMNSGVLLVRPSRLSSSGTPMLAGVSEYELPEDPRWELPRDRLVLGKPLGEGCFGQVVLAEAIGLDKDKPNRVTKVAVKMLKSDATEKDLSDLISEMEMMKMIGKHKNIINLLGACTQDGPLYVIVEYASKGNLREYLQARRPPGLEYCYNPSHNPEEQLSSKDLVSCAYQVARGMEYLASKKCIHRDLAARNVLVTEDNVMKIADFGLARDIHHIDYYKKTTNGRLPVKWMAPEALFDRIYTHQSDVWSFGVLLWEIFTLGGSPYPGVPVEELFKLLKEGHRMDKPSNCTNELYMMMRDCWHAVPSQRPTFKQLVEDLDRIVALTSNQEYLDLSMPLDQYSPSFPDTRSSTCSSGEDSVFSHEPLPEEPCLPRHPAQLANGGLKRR

As to `C=CC(=O)Nc1cnc(CCn2c(=O)c(-c3cc(OC)cc(OC)c3Cl)cc3cnc(NCCN4CCOCC4)nc32)cn1` [Example 47, N-(5-(2-(6-(2-chloro-3,5-dimethoxyphenyl)-2-((2-morpholinoethyl)amino)-7-oxopyrido[2,3-d]pyrimidin-8(7H)-yl)ethyl)pyrazin-2-yl)acrylamide], the figures for the IC50 at human recombinant FGFR1 and in the experiment on SNU-16 cells were 3 nM and 82.4 nM, respectively.

For the compound `C=CC(=O)Nc1ccc(CCn2c(=O)c(-c3c(Cl)c(OC)cc(OC)c3Cl)cc3cnc(NC(CC)(CO)CO)nc32)cc1` [Example 92, N-(4-(2-(6-(2,6-dichloro-3,5-dimethoxyphenyl)-2-((1-hydroxy-2-(hydroxymethyl)-butan-2-yl)amino)-7-oxopyrido[2,3-d]pyrimidin-8(7H)-yl)ethyl)phenyl)acrylamide], the IC50 came out at 1.1 nM on human recombinant FGFR1 and 6.3 nM in the experiment with SNU-16 cells.

With `C=CC(=O)Nc1ccc(CCn2c(=O)c(-c3cc(OC)cc(OC)c3Cl)cc3cnc(N)nc32)cc1` [Example 27, N-(4-(2-(2-amino-6-(2-chloro-3,5-dimethoxyphenyl)-7-oxopyrido[2,3-d]pyrimidin-8(7H)-yl)ethyl)phenyl)acrylamide], the IC50 at human recombinant FGFR1 turned out to be 0.9 nM; in the experiment on SNU-16 cells, 7.4 nM.

Take `C=CC(=O)Nc1ccc(CCn2c(=O)c(-c3c(Cl)c(OC)cc(OC)c3Cl)cc3cnc(NC4CCOCC4)nc32)cc1` [Example 89, N-(4-(2-(6-(2,6-dichloro-3,5-dimethoxyphenyl)-7-oxo-2-((tetrahydro-2H-pyran-4-yl)amino)pyrido[2,3-d]pyrimidin-8(7H)-yl)ethyl)phenyl)acrylamide]: the values for the IC50 at human recombinant FGFR1 and with SNU-16 cells were 0.2 nM and 4.8 nM, respectively.

Regarding `C=CC(=O)Nc1ccc(CCn2c(=O)c(-c3cc(OC)cc(OC)c3Cl)cc3cnc(NCC(C)(C)CO)nc32)cc1` [Example 83, N-(4-(2-(6-(2-chloro-3,5-dimethoxyphenyl)-2-((3-hydroxy-2,2-dimethyl-propyl)amino)-7-oxopyrido[2,3-d]pyrimidin-8(7H)-yl)ethyl)phenyl)acrylamide], the 50% inhibitory concentration (IC50) on human recombinant FGFR1 was determined as 0.6 nM; in the experiment on SNU-16 cells, 4.2 nM.

Turning to `CNc1ncc2cc(-c3cc(OC)cc(OC)c3Cl)c(=O)n(CCc3cccc(NC(=O)/C=C/CN(C)C)c3)c2n1` [Example 23, (E)-N-(3-(2-(6-(2-chloro-3,5-dimethoxyphenyl)-2-(methylamino)-7-oxopyrido[2,3-d]pyrimidin-8(7H)-yl)ethyl)phenyl)-4-(dimethylamino)but-2-enamide], the results for the IC50 on human recombinant FGFR1 and with SNU-16 cells were 1.2 nM and 1 nM, respectively.

For the compound `C#CCNc1ncc2cc(-c3cc(OC)cc(OC)c3Cl)c(=O)n(CCc3ccc(NC(=O)C=C)cn3)c2n1` [Example 59, N-(6-(2-(6-(2-chloro-3,5-dimethoxyphenyl)-7-oxo-2-(prop-2-yn-1-ylamino)pyrido-[2,3-d]pyrimidin-8(7H)-yl)ethyl)pyridin-3-yl)acrylamide], the IC50 on human recombinant FGFR1 was found to be 0.5 nM; in the experiment with SNU-16 cells, 0.6 nM.

As to `C=CC(=O)Nc1ccc(CCn2c(=O)c(-c3c(Cl)c(OC)cc(OC)c3Cl)cc3cnc(NC(C)(CO)CO)nc32)nc1` [Example 99, N-(6-(2-(6-(2,6-dichloro-3,5-dimethoxyphenyl)-2-((1,3-dihydroxy-2-methylpropan-2-yl)-amino)-7-oxopyrido[2,3-d]pyrimidin-8(7H)-yl)ethyl)pyridin-3-yl)acrylamide], the IC50 stood at 1.2 nM at human recombinant FGFR1 and 2.6 nM in the experiment with SNU-16 cells.

On to `CNc1ncc2cc(-c3cc(OC)cc(OC)c3Cl)c(=O)n(CCc3ccc(NS(=O)(=O)C=C(C)C)cc3)c2n1` [Example 45, N-(4-(2-(6-(2-chloro-3,5-dimethoxyphenyl)-2-(methylamino)-7-oxopyrido[2,3-d]pyrimidin-8(7H)-yl)ethyl)phenyl)-2-methylprop-1-ene-1-sulfonamide], for which the IC50 at human recombinant FGFR1 turned out to be 4 nM; in the experiment with SNU-16 cells, 48 nM.

With `C=CC(=O)Nc1ccc(CCn2c(=O)c(-c3c(Cl)c(OC)cc(OC)c3Cl)cc3cnc(NCC4CC4)nc32)cc1` [Example 90, N-(4-(2-(2-((cyclopropylmethyl)amino)-6-(2,6-dichloro-3,5-dimethoxyphenyl)-7-oxopyrido[2,3-d]pyrimidin-8(7H)-yl)ethyl)phenyl)acrylamide], the IC50 on human recombinant FGFR1 was determined as 1.8 nM; with SNU-16 cells it was 4.6 nM.

On to `C=CC(=O)Nc1ccc(CCn2c(=O)c(-c3cc(OC)cc(OC)c3Cl)cc3cnc(NCCN4CCOCC4)nc32)cc1Cl` [Example 56, N-(4-(2-(6-(2-chloro-3,5-dimethoxyphenyl)-2-((2-morpholinoethyl)amino)-7-oxopyrido[2,3-d]pyrimidin-8(7H)-yl)ethyl)-2-chlorophenyl)acrylamide], for which the values for the IC50 at human recombinant FGFR1 and in the experiment on SNU-16 cells were 3.7 nM and 5 nM, respectively.

Turning to `C=CC(=O)Nc1ccc(CCn2c(=O)c(-c3c(Cl)c(OC)cc(OC)c3Cl)cc3cnc(NCCO)nc32)nc1` [Example 86, N-(6-(2-(6-(2,6-dichloro-3,5-dimethoxyphenyl)-2-((2-hydroxyethyl)amino)-7-oxopyrido[2,3-d]pyrimidin-8(7H)-yl)ethyl)pyridin-3-yl)acrylamide], the IC50 on human recombinant FGFR1 was 0.6 nM; with SNU-16 cells it was 11.4 nM.

Regarding `C=CC(=O)Nc1ccc(CCn2c(=O)c(-c3cc(OC)cc(OC)c3Cl)cc3cnc(NCC(C)(C)O)nc32)cc1` [Example 24, N-(4-(2-(6-(2-chloro-3,5-dimethoxyphenyl)-2-((2-hydroxy-2-methylpropyl)amino)-7-oxopyrido[2,3-d]pyrimidin-8(7H)-yl)ethyl)phenyl)acrylamide], the figures for the IC50 on human recombinant FGFR1 and in the experiment on SNU-16 cells were 1.7 nM and 1.8 nM, respectively.

With `C=CC(=O)Nc1ccc(CCn2c(=O)c(-c3cc(OC)cc(OC)c3Cl)cc3cnc(NCCN4[C@H](C)CNC[C@@H]4C)nc32)cc1` [Example 82, N-(4-(2-(6-(2-chloro-3,5-dimethoxyphenyl)-2-((2-((2R,6S)-2,6-dimethylpiperazin-1-yl)ethyl)amino)-7-oxopyrido[2,3-d]pyrimidin-8(7H)-yl)ethyl)phenyl)acrylamide], the 50% inhibitory concentration (IC50) on human recombinant FGFR1 is 0.5 nM; in the experiment with SNU-16 cells, 70.4 nM.

In the case of `C#CCNc1ncc2cc(-c3c(Cl)c(OC)cc(OC)c3Cl)c(=O)n(CCc3ccc(NC(=O)C=C)cn3)c2n1` [Example 101, N-(6-(2-(6-(2,6-dichloro-3,5-dimethoxyphenyl)-7-oxo-2-(prop-2-yn-1-ylamino)-pyrido[2,3-d]pyrimidin-8(7H)-yl)ethyl)pyridin-3-yl)acrylamide], the IC50 at human recombinant FGFR1 was 0.3 nM; in the experiment on SNU-16 cells, 1.6 nM.

`C=CC(=O)Nc1ccc(CCn2c(=O)c(-c3c(Cl)c(OC)cc(OC)c3Cl)cc3cnc(NC(C)C)nc32)nc1` [Example 80, N-(6-(2-(6-(2,6-dichloro-3,5-dimethoxyphenyl)-2-(isopropylamino)-7-oxopyrido[2,3-d]pyrimidin-8(7H)-yl)ethyl)pyridin-3-yl)acrylamide]: the results for the IC50 at human recombinant FGFR1 and with SNU-16 cells were 0.5 nM and 9.6 nM, respectively.

On to `C=CS(=O)(=O)Nc1cccc(CCn2c(=O)c(-c3cc(OC)cc(OC)c3Cl)cc3cnc(NC)nc32)c1` [Example 21, N-(3-(2-(6-(2-chloro-3,5-dimethoxyphenyl)-2-(methylamino)-7-oxopyrido[2,3-d]pyrimidin-8(7H)-yl)ethyl)phenyl)ethenesulfonamide], for which the IC50 at human recombinant FGFR1 amounted to 6.7 nM; in the experiment on SNU-16 cells it was 115 nM.
